Laboratory results from paper PMC9329436, “Optimization of the 4-anilinoquin(az)oline scaffold as epidermal growth factor receptor (EGFR) inhibitors for chordoma utilizing a toxicology profiling assay platform” (Scientific Reports, 2022).
Where two headings read alike, the source gives them in different places.

What was measured:
Assay type in all cases: biochemical
[1] = biological target: T1, 320 wild-type protein kinases (Homo sapiens, UniProt O00418); conditions: EEF2K, singlicate
T1 sequence (O00418 1-725): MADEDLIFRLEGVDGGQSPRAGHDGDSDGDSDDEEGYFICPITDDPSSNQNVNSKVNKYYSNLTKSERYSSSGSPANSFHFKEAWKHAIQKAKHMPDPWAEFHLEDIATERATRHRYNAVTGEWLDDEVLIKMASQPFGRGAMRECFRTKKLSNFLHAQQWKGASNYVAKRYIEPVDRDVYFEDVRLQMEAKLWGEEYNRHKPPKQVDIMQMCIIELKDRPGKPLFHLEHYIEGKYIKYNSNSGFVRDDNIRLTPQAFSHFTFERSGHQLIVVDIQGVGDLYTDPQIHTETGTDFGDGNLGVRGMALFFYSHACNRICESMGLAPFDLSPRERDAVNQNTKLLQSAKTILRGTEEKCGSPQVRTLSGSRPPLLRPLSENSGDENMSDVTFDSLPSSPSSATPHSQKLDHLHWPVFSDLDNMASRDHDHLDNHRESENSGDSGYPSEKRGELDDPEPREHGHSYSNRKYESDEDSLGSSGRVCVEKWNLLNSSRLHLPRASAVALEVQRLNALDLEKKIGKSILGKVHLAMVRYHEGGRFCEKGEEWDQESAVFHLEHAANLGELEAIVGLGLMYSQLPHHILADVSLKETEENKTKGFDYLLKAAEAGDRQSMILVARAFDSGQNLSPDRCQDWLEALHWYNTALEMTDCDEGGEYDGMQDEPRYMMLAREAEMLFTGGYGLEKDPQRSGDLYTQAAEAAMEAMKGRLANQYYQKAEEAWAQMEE
Source text: (§1) Table S4. Profiling of two compounds at two concentrations against 320 wild-type protein kinases; singlicate measurement; Residual activities (% of control).

[2] = biological target: T2, 320 wild-type protein kinases (Homo sapiens, UniProt O14920); conditions: IKK-beta, singlicate
T2 sequence (O14920 1-756): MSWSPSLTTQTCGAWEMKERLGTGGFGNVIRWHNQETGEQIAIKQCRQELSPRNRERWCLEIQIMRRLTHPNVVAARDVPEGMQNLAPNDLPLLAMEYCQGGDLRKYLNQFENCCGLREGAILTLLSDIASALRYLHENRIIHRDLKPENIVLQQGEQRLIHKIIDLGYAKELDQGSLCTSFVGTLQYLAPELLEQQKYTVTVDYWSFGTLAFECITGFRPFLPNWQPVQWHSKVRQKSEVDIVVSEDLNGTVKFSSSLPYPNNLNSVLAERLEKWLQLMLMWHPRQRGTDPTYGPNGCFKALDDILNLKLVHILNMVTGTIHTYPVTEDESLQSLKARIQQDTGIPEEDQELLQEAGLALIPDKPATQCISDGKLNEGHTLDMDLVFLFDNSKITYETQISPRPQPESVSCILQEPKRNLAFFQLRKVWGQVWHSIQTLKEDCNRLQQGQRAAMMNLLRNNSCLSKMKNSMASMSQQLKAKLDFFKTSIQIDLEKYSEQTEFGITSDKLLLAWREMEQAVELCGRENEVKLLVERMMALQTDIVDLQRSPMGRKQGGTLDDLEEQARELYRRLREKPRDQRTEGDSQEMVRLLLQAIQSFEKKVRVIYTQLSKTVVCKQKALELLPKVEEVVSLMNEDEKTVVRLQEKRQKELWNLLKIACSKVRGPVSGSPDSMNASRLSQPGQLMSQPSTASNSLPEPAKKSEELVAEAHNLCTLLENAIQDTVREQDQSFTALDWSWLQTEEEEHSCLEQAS
Source text: as §1

[3] = biological target: 320 wild-type protein kinases (Homo sapiens, UniProt O75116); conditions: kinase ROCK2, singlicate
Source text: as §1

[4] = biological target: 320 wild-type protein kinases (Homo sapiens, UniProt Q9H2X6); conditions: singlicate
Source text: as §1

[5] = biological target: 320 wild-type protein kinases (Homo sapiens, UniProt Q9P0L2); conditions: singlicate
Source text: as §1

[6] = biological target: T3, 320 wild-type protein kinases (Homo sapiens, UniProt Q9UKI8); conditions: kinase TLK1, singlicate
T3 sequence (Q9UKI8 1-766): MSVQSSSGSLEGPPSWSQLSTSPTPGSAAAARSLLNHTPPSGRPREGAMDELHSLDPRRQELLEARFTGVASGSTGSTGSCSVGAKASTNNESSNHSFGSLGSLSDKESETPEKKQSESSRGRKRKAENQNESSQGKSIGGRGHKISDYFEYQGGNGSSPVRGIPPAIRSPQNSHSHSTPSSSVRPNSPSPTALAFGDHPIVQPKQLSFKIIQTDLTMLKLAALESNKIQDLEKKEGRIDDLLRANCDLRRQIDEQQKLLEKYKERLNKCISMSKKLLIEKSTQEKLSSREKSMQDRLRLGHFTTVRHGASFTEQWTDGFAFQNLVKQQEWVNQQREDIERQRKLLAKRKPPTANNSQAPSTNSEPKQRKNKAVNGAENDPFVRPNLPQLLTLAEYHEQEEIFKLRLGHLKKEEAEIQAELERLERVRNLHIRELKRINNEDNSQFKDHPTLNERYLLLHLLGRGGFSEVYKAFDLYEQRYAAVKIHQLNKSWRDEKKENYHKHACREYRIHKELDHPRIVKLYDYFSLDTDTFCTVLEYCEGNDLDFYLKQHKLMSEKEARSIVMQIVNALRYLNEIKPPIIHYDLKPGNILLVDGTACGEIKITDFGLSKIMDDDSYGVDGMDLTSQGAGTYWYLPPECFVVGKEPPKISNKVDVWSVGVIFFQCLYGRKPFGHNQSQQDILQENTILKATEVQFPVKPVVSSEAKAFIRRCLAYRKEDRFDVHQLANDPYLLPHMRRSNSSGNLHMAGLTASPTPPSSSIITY
Source text: as §1

Chain of 320 wild-type protein kinases (Homo sapiens, UniProt Q9H2X6) (Q9H2X6 whole entry): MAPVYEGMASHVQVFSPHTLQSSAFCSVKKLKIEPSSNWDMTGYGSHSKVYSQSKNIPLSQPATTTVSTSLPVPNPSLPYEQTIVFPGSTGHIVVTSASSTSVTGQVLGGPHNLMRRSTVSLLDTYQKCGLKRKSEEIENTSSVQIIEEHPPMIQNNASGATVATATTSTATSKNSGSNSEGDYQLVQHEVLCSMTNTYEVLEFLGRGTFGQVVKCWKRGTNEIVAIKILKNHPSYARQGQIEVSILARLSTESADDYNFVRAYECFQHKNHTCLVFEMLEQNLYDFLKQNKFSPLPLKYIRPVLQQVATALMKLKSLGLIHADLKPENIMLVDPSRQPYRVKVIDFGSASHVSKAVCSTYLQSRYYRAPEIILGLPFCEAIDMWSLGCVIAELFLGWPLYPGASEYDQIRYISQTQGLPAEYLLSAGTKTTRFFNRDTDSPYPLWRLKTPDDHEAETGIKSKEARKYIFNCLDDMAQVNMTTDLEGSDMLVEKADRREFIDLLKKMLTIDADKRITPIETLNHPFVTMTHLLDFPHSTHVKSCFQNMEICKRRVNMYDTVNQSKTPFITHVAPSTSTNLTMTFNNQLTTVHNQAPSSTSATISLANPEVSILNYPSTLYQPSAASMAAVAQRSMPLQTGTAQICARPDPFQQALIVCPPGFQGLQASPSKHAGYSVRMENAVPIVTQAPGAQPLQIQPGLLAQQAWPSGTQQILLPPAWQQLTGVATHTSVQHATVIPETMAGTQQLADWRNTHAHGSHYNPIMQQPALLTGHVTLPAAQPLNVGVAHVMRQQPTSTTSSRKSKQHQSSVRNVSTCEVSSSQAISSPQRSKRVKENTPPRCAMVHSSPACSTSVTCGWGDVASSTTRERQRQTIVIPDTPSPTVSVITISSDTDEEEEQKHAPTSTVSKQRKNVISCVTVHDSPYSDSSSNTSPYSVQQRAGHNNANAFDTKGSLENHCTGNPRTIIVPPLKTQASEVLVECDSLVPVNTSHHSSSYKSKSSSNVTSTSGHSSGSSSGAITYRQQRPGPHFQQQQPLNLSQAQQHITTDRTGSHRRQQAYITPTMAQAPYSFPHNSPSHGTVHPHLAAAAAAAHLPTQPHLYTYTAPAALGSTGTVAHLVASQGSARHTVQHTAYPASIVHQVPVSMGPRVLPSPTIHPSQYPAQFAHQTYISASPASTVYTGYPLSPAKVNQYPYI
Chain of 320 wild-type protein kinases (Homo sapiens, UniProt O75116) (O75116 whole entry): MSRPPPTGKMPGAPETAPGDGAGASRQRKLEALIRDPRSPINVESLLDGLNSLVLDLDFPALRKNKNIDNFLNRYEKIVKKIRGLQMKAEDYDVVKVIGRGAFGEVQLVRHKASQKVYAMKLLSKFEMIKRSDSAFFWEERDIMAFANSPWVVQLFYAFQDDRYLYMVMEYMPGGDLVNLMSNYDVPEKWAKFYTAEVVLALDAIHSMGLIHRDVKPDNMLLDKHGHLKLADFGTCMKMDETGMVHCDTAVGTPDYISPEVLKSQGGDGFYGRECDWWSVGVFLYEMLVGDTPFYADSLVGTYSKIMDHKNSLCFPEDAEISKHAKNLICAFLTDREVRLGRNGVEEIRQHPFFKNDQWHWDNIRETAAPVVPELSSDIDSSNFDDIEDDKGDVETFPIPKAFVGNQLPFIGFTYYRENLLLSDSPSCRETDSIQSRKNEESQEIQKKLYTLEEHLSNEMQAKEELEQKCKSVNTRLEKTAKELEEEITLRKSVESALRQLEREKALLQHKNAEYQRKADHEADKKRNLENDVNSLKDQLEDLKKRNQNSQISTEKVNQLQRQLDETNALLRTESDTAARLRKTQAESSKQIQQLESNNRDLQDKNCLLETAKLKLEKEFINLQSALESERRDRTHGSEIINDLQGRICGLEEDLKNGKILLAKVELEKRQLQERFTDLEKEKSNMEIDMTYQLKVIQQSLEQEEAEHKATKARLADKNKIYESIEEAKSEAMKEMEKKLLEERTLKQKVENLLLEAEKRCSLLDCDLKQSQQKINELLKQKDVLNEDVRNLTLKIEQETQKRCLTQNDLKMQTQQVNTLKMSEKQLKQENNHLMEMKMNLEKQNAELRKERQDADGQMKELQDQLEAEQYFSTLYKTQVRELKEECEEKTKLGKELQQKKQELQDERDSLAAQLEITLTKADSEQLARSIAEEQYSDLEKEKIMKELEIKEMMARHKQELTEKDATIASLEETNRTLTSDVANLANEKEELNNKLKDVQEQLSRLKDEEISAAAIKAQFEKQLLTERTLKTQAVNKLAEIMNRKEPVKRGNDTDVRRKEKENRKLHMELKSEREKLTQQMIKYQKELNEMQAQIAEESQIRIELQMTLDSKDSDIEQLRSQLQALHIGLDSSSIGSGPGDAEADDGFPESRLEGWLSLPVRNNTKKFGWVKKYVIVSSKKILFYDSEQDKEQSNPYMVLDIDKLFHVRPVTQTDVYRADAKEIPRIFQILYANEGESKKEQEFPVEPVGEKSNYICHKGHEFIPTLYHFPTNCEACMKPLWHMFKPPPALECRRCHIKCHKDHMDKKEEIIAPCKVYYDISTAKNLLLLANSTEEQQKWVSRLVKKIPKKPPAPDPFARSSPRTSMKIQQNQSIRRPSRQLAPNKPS
Chain of 320 wild-type protein kinases (Homo sapiens, UniProt Q9P0L2) (Q9P0L2 whole entry): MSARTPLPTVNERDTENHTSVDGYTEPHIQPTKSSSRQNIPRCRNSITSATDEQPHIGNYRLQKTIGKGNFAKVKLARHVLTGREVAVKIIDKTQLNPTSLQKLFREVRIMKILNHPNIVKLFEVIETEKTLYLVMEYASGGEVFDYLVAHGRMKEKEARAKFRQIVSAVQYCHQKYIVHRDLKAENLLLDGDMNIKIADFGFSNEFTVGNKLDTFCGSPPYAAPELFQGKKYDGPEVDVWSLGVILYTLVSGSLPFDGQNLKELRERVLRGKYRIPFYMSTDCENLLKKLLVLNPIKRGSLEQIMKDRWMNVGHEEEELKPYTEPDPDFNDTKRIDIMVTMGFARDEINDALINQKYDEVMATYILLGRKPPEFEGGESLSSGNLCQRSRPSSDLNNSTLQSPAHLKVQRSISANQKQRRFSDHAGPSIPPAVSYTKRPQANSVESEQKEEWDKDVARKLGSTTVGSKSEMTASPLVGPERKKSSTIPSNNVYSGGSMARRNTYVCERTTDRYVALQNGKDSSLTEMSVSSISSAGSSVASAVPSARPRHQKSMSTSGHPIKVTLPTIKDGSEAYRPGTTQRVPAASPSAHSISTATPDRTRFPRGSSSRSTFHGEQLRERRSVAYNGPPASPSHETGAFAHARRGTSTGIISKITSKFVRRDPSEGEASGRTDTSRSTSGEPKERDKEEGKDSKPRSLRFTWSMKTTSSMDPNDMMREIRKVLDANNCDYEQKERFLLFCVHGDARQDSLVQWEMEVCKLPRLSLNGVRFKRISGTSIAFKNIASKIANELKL

| Compound | Residual activity ([1]; 1.0E-06 M) | Residual activity ([1]; 1.0E-07 M) | Residual activity ([2]; 1.0E-06 M) | Residual activity ([2]; 1.0E-07 M) | Residual activity, ROCK2 ([3]; assay conc. 1.0E-06 M) | Residual activity, ROCK2 ([3]; assay conc. 1.0E-07 M) | Residual activity ([4]; HIPK2, 1.0E-06 M) | Residual activity ([4]; HIPK2, 1.0E-07 M) | Residual activity ([5]; MARK1, 1.0E-06 M) | Residual activity ([5]; MARK1, 1.0E-07 M) | Residual activity, TLK1 ([6]; assay conc. 1.0E-06 M) | Residual activity, TLK1 ([6]; assay conc. 1.0E-07 M) |
| --- | --- | --- | --- | --- | --- | --- | --- | --- | --- | --- | --- | --- |
| C#Cc1cc(Nc2ncnc3cc(I)ccc23)ccc1Cl [Compound 41] | 87 % of control | 94 % of control | 124 % of control | 199 % of control | 88 % of control | 100 % of control | 101 % of control | 97 % of control | 85 % of control | 94 % of control | 100 % of control | 110 % of control |
| C#Cc1cc(Nc2ncnc3cc(OC)c(OC)cc23)ccc1Cl [Compound 45] | 83 % of control | 91 % of control | 107 % of control | 121 % of control | 84 % of control | 90 % of control | 94 % of control | 98 % of control | 93 % of control | 93 % of control | 108 % of control | 112 % of control |
